Measured values reported in ChEMBL document CHEMBL4602697 (J Med Chem, 2020).

Columns and labels:
[1] = Metabolic stability in Sprague-Dawley rat liver microsomes assessed as parent compound remaining at 20 uM measured for 120 mins by HPLC/MS analysis relative to control; assay type: ADME, Microsome; details: read-out: Stability
[2] = target: Muscarinic acetylcholine receptor M3 (Rattus norvegicus, UniProt P08483); assay: Displacement of [3H]-NMS from Wistar rat salivary gland muscarinic M3 receptor
[3] = target: T1, Muscarinic acetylcholine receptor M2 (Rattus norvegicus, UniProt P10980); assay: Displacement of [3H]-QNB from Wistar rat heart muscarinic M2 receptor
T1 sequence (P10980 whole entry): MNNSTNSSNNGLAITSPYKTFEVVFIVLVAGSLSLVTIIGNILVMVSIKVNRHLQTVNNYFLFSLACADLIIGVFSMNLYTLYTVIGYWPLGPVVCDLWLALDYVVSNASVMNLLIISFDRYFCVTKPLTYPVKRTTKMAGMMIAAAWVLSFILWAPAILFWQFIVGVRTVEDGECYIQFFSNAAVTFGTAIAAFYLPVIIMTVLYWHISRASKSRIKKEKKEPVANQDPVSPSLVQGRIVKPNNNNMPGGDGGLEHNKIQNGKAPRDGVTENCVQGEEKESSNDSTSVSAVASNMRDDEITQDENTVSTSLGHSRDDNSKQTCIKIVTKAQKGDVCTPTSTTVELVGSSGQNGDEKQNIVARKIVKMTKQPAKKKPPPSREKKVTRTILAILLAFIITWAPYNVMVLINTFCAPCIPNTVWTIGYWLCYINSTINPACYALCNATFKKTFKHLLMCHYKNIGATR

[4] = target: Muscarinic receptor M2 and M3 (Rattus norvegicus) (UniProt P08483+P10980); assay: Ratio of Ki for displacement of [3H]-QNB from Wistar rat heart muscarinic M2 receptor to Ki for displacement of [3H]-NMS from Wistar rat salivary gland muscarinic M3 receptor; assay type: protein assay
[5] = target: T2, Muscarinic acetylcholine receptor M1 (Rattus norvegicus, UniProt P08482); assay: Displacement of [3H]pirenzepin from Wistar rat cortex muscarinic M1 receptor
T2 sequence (P08482 whole entry): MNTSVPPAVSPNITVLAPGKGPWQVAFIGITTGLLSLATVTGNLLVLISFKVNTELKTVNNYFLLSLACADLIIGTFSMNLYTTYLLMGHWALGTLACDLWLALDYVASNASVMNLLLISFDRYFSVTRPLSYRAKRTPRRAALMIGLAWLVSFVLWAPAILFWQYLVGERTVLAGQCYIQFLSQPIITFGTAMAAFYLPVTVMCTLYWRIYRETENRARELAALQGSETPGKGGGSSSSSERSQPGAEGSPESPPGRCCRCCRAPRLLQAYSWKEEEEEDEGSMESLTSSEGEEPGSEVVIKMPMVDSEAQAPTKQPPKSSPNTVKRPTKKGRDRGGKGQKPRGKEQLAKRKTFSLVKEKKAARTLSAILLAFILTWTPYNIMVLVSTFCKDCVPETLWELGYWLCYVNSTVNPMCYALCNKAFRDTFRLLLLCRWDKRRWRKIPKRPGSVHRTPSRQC

Rattus norvegicus = species: Rattus norvegicus; assay: Ratio of Ki for displacement of [3H]pirenzepin from Wistar rat cortex muscarinic M1 receptor to Ki for displacement of [3H]-NMS from Wistar rat salivary gland muscarinic M3 receptor
[6] = Permeability across basolateral to apical side in human Caco2 cells coexpressing Pgp at 5 uM in presence of P-gp inhibitor valspodar measured for 3 hrs by UPLC/MS analysis; assay type: ADME, cell-based; details: caco-2, 3 h
[7] = Permeability across apical to basolateral side in human Caco2 cells coexpressing Pgp at 5 uM measured for 3 hrs by UPLC/MS analysis relative to control; assay type: ADME, cell-based; details: caco-2, 3 h
[8] = Permeability across basolateral to apical side in human Caco2 cells coexpressing Pgp at 5 uM measured for 3 hrs by UPLC/MS analysis relative to control; assay type: ADME, cell-based; details: caco-2, 3 h
[9] = Permeability across apical to basolateral side in human Caco2 cells coexpressing Pgp at 5 uM in presence of P-gp inhibitor valspodar measured for 3 hrs by UPLC/MS analysis; assay type: ADME, cell-based; details: caco-2, 3 h

Sequence of Muscarinic acetylcholine receptor M3 (P08483 whole entry): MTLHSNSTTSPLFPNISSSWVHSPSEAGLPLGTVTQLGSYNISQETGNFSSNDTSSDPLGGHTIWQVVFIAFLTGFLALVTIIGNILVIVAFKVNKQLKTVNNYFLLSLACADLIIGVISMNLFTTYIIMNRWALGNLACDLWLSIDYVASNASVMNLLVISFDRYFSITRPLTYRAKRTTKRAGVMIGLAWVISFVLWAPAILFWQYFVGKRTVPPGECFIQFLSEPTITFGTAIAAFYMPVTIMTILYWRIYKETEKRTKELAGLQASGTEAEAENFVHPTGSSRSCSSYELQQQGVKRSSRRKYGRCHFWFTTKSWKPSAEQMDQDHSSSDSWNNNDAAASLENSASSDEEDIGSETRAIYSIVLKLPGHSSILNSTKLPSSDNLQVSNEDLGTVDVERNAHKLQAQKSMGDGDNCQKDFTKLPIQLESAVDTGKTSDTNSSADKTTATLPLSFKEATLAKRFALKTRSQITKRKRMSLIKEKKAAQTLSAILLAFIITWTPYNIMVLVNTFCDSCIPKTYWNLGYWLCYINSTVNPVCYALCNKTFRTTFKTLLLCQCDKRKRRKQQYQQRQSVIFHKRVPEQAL
Sequence of Muscarinic receptor M2 and M3 (Rattus norvegicus) (P08483 whole entry, looked up, one chain of several): as the sequence (P08483 whole entry) above

Work on `O=C(Nc1ccc(F)cc1-c1cccc(Cl)c1)OCC1CCNCC1` yielded a remaining at 2 h, 20 µM [1] of 53%.
With `O=C(Nc1ccc(F)cc1-c1ccc(F)c(Cl)c1)OCC1CCNCC1` the remaining at 2 h, 20 µM [1] was 74%.
With `C[N+]12CCC(CC1)[C@@H](OC(=O)Nc1ccc(F)cc1-c1ccc(F)c(Cl)c1)C2` the remaining at 2 h, 20 µM [1] was 63%.
`O=C(Nc1ccccc1-c1ccccc1)OC1CCNCC1` gave a Ki [2] of 27 nM, a Ki [3] of 270 nM and a Ratio Ki [4] of 10. The Ki [5] was 32 nM and the Ratio Ki (Rattus norvegicus) was 1.2.
Work on `O=C(Nc1ccccc1-c1ccccc1)O[C@H]1CN2CCC1CC2` yielded a Ki [2] of 0.47 nM, a Ki [3] of 7.6 nM and a Ki [5] of 0.65 nM.
`C[N+]12CCC(CC1)[C@@H](OC(=O)Nc1ccc(F)cc1-c1cccc(Cl)c1)C2` gave a remaining at 2 h, 20 µM [1] of 65%.
With `C[C@H]1O[C@@H](O[C@H]2[C@@H](O)C[C@H](O[C@H]3[C@@H](O)C[C@H](O[C@H]4CC[C@@]5(C)[C@H](CC[C@@H]6[C@@H]5C[C@@H](O)[C@]5(C)[C@@H](C7=CC(=O)OC7)CC[C@]65O)C4)O[C@@H]3C)O[C@@H]2C)C[C@H](O)[C@@H]1O` [DIGOXIN] the permeability [6] was 10.5%, the permeability [7] was 6.7% and the permeability [8] was 19.9%. For the same molecule, the permeability [9] was 10.2%.
